How the values were obtained:
Test in all cases: Eurofins enzymatic radiometric kinase assay
Format in all cases: biochemical
Settings in all cases: ATP at Km, duplicate
PAK4 = biological target: T1, PAK4 (Homo sapiens, UniProt O96013)
T1 construct: purchased Eurofins (radiometric) / Eurofins DiscoverX scanMAX / Reaction Biology / SignalChem
Procedure: (§1) The column labeled “# < 10 PoC in enzyme panel” in Table 1 reports the number of kinases in this 17-member panel inhibited > 90% by each analog.
(§2) Details about the substrate used, protein constructs, controls, and assay protocol for these kinase assays are available at the Eurofins website: https://www.eurofinsdiscoveryservices.com. Reaction Biology Corp. (RBC) radiometric HotSpot kinase assays were carried out at the Km value for ATP in dose–response (10-pt curve) format for MYLK4, RIPK5, and YSK4 in Table S2. Details about the substrate used, protein constructs, controls, and assay protocol for these kinase assays are available at the RBC website: https://www.reactionbiology.com/list-kinase-targets-us-facility. SignalChem developed an ADP-Glo assay to test for enzymatic inhibition of PIKfyve in dose–response (10-pt curve) format in duplicate.

TAOK1 = biological target: T2, TAOK1 (Homo sapiens, UniProt Q7L7X3)
T2 construct: purchased Eurofins
T2 sequence (Q7L7X3 1-1001): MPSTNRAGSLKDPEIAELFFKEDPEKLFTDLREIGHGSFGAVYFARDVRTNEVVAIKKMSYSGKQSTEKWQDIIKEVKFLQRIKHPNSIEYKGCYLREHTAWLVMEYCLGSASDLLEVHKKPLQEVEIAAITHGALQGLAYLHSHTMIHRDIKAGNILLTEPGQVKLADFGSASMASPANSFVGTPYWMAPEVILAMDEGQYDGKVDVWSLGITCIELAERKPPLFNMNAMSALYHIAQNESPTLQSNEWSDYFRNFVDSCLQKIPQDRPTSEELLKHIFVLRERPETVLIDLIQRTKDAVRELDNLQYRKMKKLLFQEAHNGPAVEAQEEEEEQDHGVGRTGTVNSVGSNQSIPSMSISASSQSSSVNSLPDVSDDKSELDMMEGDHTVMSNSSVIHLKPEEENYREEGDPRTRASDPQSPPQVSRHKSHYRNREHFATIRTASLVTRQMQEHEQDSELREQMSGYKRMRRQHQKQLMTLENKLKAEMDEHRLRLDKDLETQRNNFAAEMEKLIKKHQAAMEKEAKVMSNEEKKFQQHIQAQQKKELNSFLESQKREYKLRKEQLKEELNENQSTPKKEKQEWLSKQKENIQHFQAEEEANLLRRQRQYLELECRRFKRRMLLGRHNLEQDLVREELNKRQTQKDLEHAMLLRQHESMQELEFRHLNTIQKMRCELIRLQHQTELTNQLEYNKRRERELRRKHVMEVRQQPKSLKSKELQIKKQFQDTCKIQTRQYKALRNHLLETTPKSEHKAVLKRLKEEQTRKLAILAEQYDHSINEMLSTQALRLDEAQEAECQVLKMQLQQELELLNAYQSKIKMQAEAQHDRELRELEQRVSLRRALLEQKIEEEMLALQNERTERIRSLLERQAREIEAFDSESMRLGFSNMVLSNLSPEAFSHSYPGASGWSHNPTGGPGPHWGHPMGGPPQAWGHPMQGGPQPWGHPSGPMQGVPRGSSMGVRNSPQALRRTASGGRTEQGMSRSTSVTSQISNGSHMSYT
Procedure: as §1, §2

TAOK2 = biological target: T3, TAOK2 (Homo sapiens, UniProt Q9UL54)
T3 construct: purchased Eurofins
T3 sequence (Q9UL54 1-1235): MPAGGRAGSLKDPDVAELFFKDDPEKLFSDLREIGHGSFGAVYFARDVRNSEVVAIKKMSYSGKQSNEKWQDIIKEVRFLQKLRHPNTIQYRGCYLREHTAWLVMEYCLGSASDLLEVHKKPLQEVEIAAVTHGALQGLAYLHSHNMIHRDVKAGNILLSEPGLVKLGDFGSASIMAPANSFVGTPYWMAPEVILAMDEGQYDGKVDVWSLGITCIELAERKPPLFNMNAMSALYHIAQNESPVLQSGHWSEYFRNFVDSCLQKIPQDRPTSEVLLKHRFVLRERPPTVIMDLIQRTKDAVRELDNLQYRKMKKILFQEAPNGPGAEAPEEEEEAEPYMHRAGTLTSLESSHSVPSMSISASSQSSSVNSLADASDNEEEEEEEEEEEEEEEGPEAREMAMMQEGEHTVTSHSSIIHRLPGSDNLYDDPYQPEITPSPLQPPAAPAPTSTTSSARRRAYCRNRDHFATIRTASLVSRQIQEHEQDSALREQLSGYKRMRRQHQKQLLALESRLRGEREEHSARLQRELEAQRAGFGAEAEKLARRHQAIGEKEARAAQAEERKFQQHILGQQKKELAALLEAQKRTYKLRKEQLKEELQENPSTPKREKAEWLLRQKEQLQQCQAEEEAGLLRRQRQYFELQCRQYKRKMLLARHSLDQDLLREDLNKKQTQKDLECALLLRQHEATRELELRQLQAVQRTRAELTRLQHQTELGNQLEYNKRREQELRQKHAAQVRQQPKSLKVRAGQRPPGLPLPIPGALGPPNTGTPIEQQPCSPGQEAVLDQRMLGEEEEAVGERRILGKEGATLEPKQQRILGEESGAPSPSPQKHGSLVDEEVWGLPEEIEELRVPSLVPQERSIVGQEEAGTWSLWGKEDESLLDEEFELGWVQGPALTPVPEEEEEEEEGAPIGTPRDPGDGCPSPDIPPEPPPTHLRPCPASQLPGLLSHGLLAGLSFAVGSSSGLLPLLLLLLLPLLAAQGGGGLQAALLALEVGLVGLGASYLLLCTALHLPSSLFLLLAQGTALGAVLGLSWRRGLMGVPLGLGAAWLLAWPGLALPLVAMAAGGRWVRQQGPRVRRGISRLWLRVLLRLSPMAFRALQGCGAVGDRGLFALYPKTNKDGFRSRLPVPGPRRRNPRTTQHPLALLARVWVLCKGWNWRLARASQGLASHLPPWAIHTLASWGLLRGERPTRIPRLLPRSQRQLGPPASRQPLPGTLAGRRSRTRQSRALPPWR
Procedure: as §1, §2

TSSK3 = biological target: T4, TSSK3 (Homo sapiens, UniProt Q96PN8)
T4 construct: purchased Eurofins
T4 sequence (Q96PN8 1-268): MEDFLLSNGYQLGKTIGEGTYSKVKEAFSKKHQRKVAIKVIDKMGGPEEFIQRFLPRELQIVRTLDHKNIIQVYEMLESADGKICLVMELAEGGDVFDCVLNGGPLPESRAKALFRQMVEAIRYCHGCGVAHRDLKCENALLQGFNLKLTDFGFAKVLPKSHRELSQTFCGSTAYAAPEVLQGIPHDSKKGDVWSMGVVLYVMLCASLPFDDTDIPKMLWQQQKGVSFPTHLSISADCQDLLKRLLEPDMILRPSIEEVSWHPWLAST
Procedure: as §1, §2

MAP4K5 = biological target: T5, MAP4K5 (Homo sapiens, UniProt Q9Y4K4)
T5 construct: purchased Eurofins
Procedure: as §1, §2

T5 sequence (Q9Y4K4 whole entry): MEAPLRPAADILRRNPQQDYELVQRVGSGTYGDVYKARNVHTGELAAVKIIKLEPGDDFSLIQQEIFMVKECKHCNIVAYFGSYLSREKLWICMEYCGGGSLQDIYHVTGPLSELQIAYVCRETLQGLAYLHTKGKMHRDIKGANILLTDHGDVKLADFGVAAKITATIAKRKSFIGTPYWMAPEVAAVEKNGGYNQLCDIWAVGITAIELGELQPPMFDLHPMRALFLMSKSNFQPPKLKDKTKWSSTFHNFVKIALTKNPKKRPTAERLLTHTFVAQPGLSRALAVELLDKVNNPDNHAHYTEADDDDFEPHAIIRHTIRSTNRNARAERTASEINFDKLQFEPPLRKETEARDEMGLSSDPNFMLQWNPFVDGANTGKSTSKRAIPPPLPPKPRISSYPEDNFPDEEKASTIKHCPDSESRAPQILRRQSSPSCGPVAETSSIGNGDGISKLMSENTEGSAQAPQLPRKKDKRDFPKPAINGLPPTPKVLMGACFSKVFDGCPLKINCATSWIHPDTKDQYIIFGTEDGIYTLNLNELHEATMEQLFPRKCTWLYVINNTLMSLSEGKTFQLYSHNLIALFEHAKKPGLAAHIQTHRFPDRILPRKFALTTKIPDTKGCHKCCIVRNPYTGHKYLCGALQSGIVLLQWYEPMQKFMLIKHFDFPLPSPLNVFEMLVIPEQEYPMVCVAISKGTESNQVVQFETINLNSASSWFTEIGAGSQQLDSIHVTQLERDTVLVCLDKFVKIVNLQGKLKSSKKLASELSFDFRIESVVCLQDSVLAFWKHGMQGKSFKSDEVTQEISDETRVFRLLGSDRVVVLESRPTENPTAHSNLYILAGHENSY
T1 sequence (O96013 whole entry): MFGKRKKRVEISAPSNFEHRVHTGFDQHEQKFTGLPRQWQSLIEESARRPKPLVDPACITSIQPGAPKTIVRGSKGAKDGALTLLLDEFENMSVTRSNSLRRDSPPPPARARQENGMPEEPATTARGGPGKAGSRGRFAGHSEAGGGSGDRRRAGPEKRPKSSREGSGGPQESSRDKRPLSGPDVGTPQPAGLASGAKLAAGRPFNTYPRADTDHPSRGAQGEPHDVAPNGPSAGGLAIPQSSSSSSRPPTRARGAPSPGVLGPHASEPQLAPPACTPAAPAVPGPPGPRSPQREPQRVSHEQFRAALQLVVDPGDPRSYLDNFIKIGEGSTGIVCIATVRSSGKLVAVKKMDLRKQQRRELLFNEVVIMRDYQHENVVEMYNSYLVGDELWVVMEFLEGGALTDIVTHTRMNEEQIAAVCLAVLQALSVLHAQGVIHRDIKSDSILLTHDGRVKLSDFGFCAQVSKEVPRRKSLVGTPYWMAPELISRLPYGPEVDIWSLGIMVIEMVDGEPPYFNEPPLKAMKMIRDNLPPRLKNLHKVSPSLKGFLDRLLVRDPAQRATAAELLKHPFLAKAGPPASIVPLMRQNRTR

Row | Compound | PAK4 PoC at 1 μM (PAK4) | TAOK1 PoC at 1 μM (TAOK1) | TAOK2 PoC at 1 μM (TAOK2) | TSSK3 PoC at 1 μM (TSSK3) | MAP4K5 PoC at 1 μM (MAP4K5)
1 | CC(C)(O)C#Cc1ccc2[nH]c3c(c2c1)-c1nc(N)ncc1CCCC3 [Compound 2] | 67 PoC | 65 PoC | 83 PoC | 120 PoC | 9 PoC
2 | CC(C)(O)C#Cc1ccc2[nH]cc(-c3ccnc(N)n3)c2c1 [Compound 3] | 30 PoC | 7 PoC | 12 PoC | 5 PoC | 1 PoC
3 | CC(C)(O)C#Cc1ccc2[nH]c3c(c2c1)-c1nc(N)ncc1CC3 [Compound 1] | 58 PoC | 5 PoC | 28 PoC | 11 PoC | 3 PoC
4 | CC(C)(O)C#Cc1ccc2[nH]c3c(c2c1)-c1nc(N)ncc1CCC3 [AMG28, reference compound] | 8 PoC | 2 PoC | 26 PoC | 1 PoC | 1 PoC
5 | COC(C)(C)C#Cc1ccc2[nH]c3c(c2c1)-c1nc(N)ncc1CCC3 [Compound 11] | 91 PoC | 73 PoC | 44 PoC | 75 PoC | 9 PoC
